Source: US20200339691A1, “PROTEINACEOUS MOLECULES AND USES THEREFOR” (priority 2018, published 2020)
Where a SMILES comes first, the peptide text is derived from it. The star is where a group is joined. Myristoyl = CCCCCCCCCCCCCC(=O)*

Tests used:
MDA-MB-231 cells = assay type: cell-based, human; details: 50 μM peptide, 48 hours, n = 1
Excerpt: (§1) Non-adherent cells were removed during the washing steps.

[1] = system: CD44^hiCD24^lo CSCs in MDA-MB-231 cells; test: FACS analysis of CD44^hiCD24^lo cancer stem cells in MDA-MB-231 cells treated with P1 analogues; assay type: cell-based, human; details: 50 μM peptide, 48 hours; for CD44^hiCD24^lo CSCs (%) / COI, Live Single CD44^hiCD24^lo CSCs (Cell Count): n = 1; for Average Inhibition of CSCs (%) / CD44^hiCD24^lo CSCs (%) Repeat 1 / CD44^hiCD24^lo CSCs (%) Repeat 2 / CD44^hiCD24^lo CSCs (%) Repeat 3: n = 3
Protocol: Analogues of P1 (Table 6) were designed and synthesized in accordance with the procedure of Example 5. The ability of these analogues to inhibit cancer stem cells was determined using FACS analysis on MDA-MB-231 cells, which constitutively contain approximately 90% CD44^hiCD24^lo cancer stem cells, treated with the peptides.
as §1
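For COI, Live Single Cells (Cell Count) in this document: live means Hoechst-negative events among single cells.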

| SMILES | COI (Cell Count) (MDA-MB-231 cells) | COI, Live Single Cells (Cell Count) (MDA-MB-231 cells) | COI, Single (Cell Count) (MDA-MB-231 cells) | Total Cell Count (MDA-MB-231 cells) | Inhibition of CSCs (%) Repeat 1 [1] | Inhibition of CSCs (%) Repeat 2 [1] | Inhibition of CSCs (%) Repeat 3 [1] | CD44^hiCD24^lo CSCs (%) [1] | COI, Live Single CD44^hiCD24^lo CSCs (Cell Count) [1] | Average Inhibition of CSCs (%) [1] | CD44^hiCD24^lo CSCs (%) Repeat 1 [1] | CD44^hiCD24^lo CSCs (%) Repeat 2 [1] | CD44^hiCD24^lo CSCs (%) Repeat 3 [1] |
| --- | --- | --- | --- | --- | --- | --- | --- | --- | --- | --- | --- | --- | --- |
| CCCCCCCCCCCCCC(=O)N[C@@H](CC(C)C)C(=O)N[C@H](C(=O)N[C@@H](Cc1ccccc1)C(=O)N[C@H](C(=O)N[C@@H](Cc1ccccc1)C(=O)N[C@@H](CCCNC(=N)N)C(=O)N[C@@H](CC(C)C)C(=O)N[C@@H](CCCNC(=N)N)C(=O)N[C@@H](CCCCN)C(=O)NCC(=O)N[C@@H](CCCNC(=N)N)C(=O)N[C@@H](CCSC)C(=O)N[C@@H](CCC(=O)O)C(=O)N[C@@H](CC(=O)O)C(=O)N[C@H](C(=O)N[C@@H](CCCCN)C(=O)N[C@@H](CCCCN)C(N)=O)C(C)C)[C@@H](C)CC)[C@@H](C)O [Peptide 2853834, Myristoyl-LTFIFRLRKGRMEDVKK-NH2] (Myristoyl-LTFIFRLRKGRMEDVKK-NH2) | 890 | 382 | 660 | 4207 | 91.98% | 92.08% | 92.04% | 5.76% | 22 | 92.03% | 7.18% | 7.11% | 7.14% |
| CCCCCCCCCCCCCC(=O)N[C@@H](CC(C)C)C(=O)N[C@H](C(=O)N[C@@H](CCC(=O)O)C(=O)N[C@H](C(=O)N[C@@H](Cc1ccccc1)C(=O)N[C@@H](CCCNC(=N)N)C(=O)N[C@@H](CC(C)C)C(=O)N[C@@H](CCCNC(=N)N)C(=O)N[C@@H](CCCCN)C(=O)NCC(=O)N[C@@H](CCCNC(=N)N)C(=O)N[C@@H](CCSC)C(=O)N[C@@H](CCSC)C(=O)N[C@@H](CC(=O)O)C(=O)N[C@H](C(=O)N[C@@H](CCCCN)C(=O)N[C@@H](CCCCN)C(N)=O)C(C)C)[C@@H](C)CC)[C@@H](C)O [Peptide 2853807, Myristoyl-LTEIFRLRKGRMMDVKK-NH2] (Myristoyl-LTEIFRLRKGRMMDVKK-NH2) | 690 | 168 | 439 | 3558 | 84.07% | 81.60% | 86.81% | 11.31% | 19 | 84.16% | 14.28% | 16.51% | 11.84% |
| CCCCCCCCCCCCCC(=O)N[C@@H](CC(C)C)C(=O)N[C@H](C(=O)N[C@@H](CCCCN)C(=O)N[C@H](C(=O)N[C@@H](Cc1ccccc1)C(=O)N[C@@H](CCCNC(=N)N)C(=O)N[C@@H](CC(C)C)C(=O)N[C@@H](CCCNC(=N)N)C(=O)N[C@@H](CCCCN)C(=O)NCC(=O)N[C@@H](CCCNC(=N)N)C(=O)N[C@@H](CCSC)C(=O)N[C@@H](CCSC)C(=O)N[C@@H](CC(=O)O)C(=O)N[C@H](C(=O)N[C@@H](CCCCN)C(=O)N[C@@H](CCCCN)C(N)=O)C(C)C)[C@@H](C)CC)[C@@H](C)O [Peptide 2853808, Myristoyl-LTKIFRLRKGRMMDVKK-NH2] (Myristoyl-LTKIFRLRKGRMMDVKK-NH2) | 323 | 242 | 279 | 1192 | 87.54% | 84.31% | 84.48% | 10.74% | 26 | 85.44% | 11.17% | 14.07% | 13.92% |
| CCCCCCCCCCCCCC(=O)N[C@@H](CC(C)C)C(=O)N[C@H](C(=O)N[C@@H](Cc1ccccc1)C(=O)N[C@H](C(=O)N[C@@H](Cc1ccccc1)C(=O)N[C@@H](CCCNC(=N)N)C(=O)N[C@@H](CC(C)C)C(=O)N[C@@H](CCCNC(=N)N)C(=O)N[C@@H](CCCCN)C(=O)NCC(=O)N[C@@H](CCCNC(=N)N)C(=O)N[C@@H](CCSC)C(=O)N[C@@H](CCSC)C(=O)N[C@@H](CC(=O)O)C(=O)N[C@H](C(=O)N[C@@H](CCCCN)C(=O)N[C@@H](Cc1ccc(O)cc1)C(N)=O)C(C)C)[C@@H](C)CC)[C@@H](C)O [Peptide 2853847, Myristoyl-LTFIFRLRKGRMMDVKY-NH2] (Myristoyl-LTFIFRLRKGRMMDVKY-NH2) | 5345 | 4218 | 4268 | 10000 | 25.89% | 27.27% | 26.71% | 62.59% | 2640 | 26.62% | 66.42% | 65.25% | 65.76% |
| CCCCCCCCCCCCCC(=O)N[C@@H](CC(C)C)C(=O)N[C@H](C(=O)N[C@@H](Cc1ccccc1)C(=O)N[C@H](C(=O)N[C@@H](Cc1ccccc1)C(=O)N[C@@H](CCCNC(=N)N)C(=O)N[C@@H](CC(C)C)C(=O)N[C@@H](CCCNC(=N)N)C(=O)N[C@@H](CCCCN)C(=O)NCC(=O)N[C@@H](CCCNC(=N)N)C(=O)N[C@@H](CCSC)C(=O)N[C@@H](CCSC)C(=O)N[C@@H](CCCCN)C(=O)N[C@H](C(=O)N[C@@H](CCCCN)C(=O)N[C@@H](CCCCN)C(N)=O)C(C)C)[C@@H](C)CC)[C@@H](C)O [Peptide 2853836, Myristoyl-LTFIFRLRKGRMMKVKK-NH2] (Myristoyl-LTFIFRLRKGRMMKVKK-NH2) | 761 | 86 | 547 | 5448 | 88.84% | 82.17% | 86.35% | 9.30% | 8 | 85.79% | 10.00% | 16.00% | 12.24% |
| CCCCCCCCCCCCCC(=O)N[C@@H](CC(C)C)C(=O)N[C@H](C(=O)N[C@@H](Cc1ccccc1)C(=O)N[C@H](C(=O)N[C@@H](Cc1ccccc1)C(=O)N[C@@H](CCCNC(=N)N)C(=O)N[C@@H](CC(C)C)C(=O)N[C@@H](CCCNC(=N)N)C(=O)N[C@@H](CCCCN)C(=O)NCC(=O)N[C@@H](CCCNC(=N)N)C(=O)N[C@@H](CCSC)C(=O)N[C@@H](CCSC)C(=O)N[C@H](C(=O)N[C@H](C(=O)N[C@@H](CCCCN)C(=O)N[C@@H](CCCCN)C(N)=O)C(C)C)C(C)C)[C@@H](C)CC)[C@@H](C)O [Peptide 2853837, Myristoyl-LTFIFRLRKGRMMVVKK-NH2] (Myristoyl-LTFIFRLRKGRMMVVKK-NH2) | 452 | 235 | 364 | 4805 | 93.82% | 93.76% | 88.86% | 5.53% | 13 | 92.15% | 5.54% | 5.59% | 10.00% |
| CCCCCCCCCCCCCC(=O)N[C@H](C(=O)N[C@@H](Cc1ccccc1)C(=O)N[C@H](C(=O)N[C@@H](Cc1ccccc1)C(=O)N[C@@H](CCCNC(=N)N)C(=O)N[C@@H](CC(C)C)C(=O)N[C@@H](CCCNC(=N)N)C(=O)N[C@@H](CCCCN)C(=O)NCC(=O)N[C@@H](CCCNC(=N)N)C(=O)N[C@@H](CCSC)C(=O)N[C@@H](C)C(=O)N[C@@H](CC(=O)O)C(=O)N[C@H](C(=O)N[C@@H](CCCCN)C(=O)N[C@@H](CCCCN)C(N)=O)C(C)C)[C@@H](C)CC)[C@@H](C)O [Peptide 2815313, Myristoyl-TFIFRLRKGRMADVKK-NH2] (Myristoyl-TFIFRLRKGRMADVKK-NH2) | 165 | 130 | 148 | 8909 | 22.34% | 23.02% | 27.96% | 61.54% | 80 | 24.44% | 69.60% | 69.06% | 64.65% |
